Experimental data as given in US20220331290A1, “PHARMACEUTICAL COMPOSITION FOR PREVENTING OR TREATING SARCOPENIA, CONTAINING UNNATURAL AMINO ACID” (MYO-TEC-SCI, priority 2019, published 2022).

Assays:
myostatin promoter = assay: Myostatin promoter activity, dual luciferase assay in C2C12 cells transfected with pGL4.15-MSTN; format: cell-based, mouse; conditions: for promoter activity of myostatin: C2C12, medium without L-leucine; for myostatin promoter activity reduced by: 1 mM, C2C12 cells, medium without L-leucine, after one day
Procedure: After seeding 1×10^5 cells of mouse skeletal muscle cells C2C12 (ATCC, US) in a 12-well culture plate, on the next day, pGL4.15 empty vector and pGL4.15-MSTN vector containing myostatin promoter were transfected using Lipofectamine 2000 for 4 hours. After 4 hours, the complete medium (0.8 mM L-leucine) and the medium without L-leucine were treated with D-leucine or DL-leucine at concentrations of 0.001 mM, 0.01 mM, 0.1 mM, and 1 mM, respectively. After one day, a dual luciferase assay kit (Promega Inc.) was used to measure the promoter activity of myostatin.
In the same manner as the experiment to examine the inhibitory effect of a myostatin promoter activity by D-leucine or DL-leucine, D-alanine was treated at concentrations of 0.01 mM, 0.1 mM, 1 mM, and 10 mM in a medium without L-leucine, and a dual luciferase assay kit (Promega Inc.) was used to measure the promoter activity of myostatin.
In the same manner as in the experiment to examine the inhibitory effect of a myostatin promoter activity by D-leucine or DL-leucine, and D-alanine, D-proline was treated at concentrations of 0.001 mM, 0.01 mM, 0.1 mM, and 1 mM in a medium without L-leucine, and a dual luciferase assay kit (Promega Inc.) was used to measure the promoter activity of myostatin.
In the same manner as the myostatin promoter activity experimental method performed in Example 1 above, D-phenylalanine (0.001-0.1 mM), D-serine (0.001-0.1 mM), D-tyrosine (0.0001-0.01 mM), D-asparagine monohydrate (0.001-0.1 mM), D-aspartic acid (0.0001-0.01 mM), D-methionine (0.001-0.1 mM), D-cysteine hydrochloride monohydrate (0.001-0.1 mM), D-glutamic acid (0.0001-0.01 mM), D-arginine (0.001-0.1 mM), and D-tryptophan (0.001-0.1 mM) were treated, respectively. The myostatin mRNA expression level was identified using qRT-PCR, and the myostatin mRNA expression value was corrected using the expression value of beta-actin.

myostatin mRNA = assay: Myostatin mRNA expression by qRT-PCR in C2C12 cells, corrected with beta-actin; format: cell-based, mouse; conditions: C2C12, medium without L-leucine
Procedure: After seeding mouse skeletal muscle cells C2C12 (ATCC, US) 3×10^5 cells in a 6-well culture plate, on the next day, D-leucine was treated at concentrations of 0.01 mM, 0.1 mM, and 1 mM in a complete medium (0.8 mM L-leucine) and a medium without L-leucine. […]

C[C@@H](N)C(=O)O [D-alanine]
promoter activity of myostatin (myostatin promoter; D-alanine at 0.01 mM or more (0.01-10 mM tested), 12 hours (FIG. 6)): decreased | mRNA expression level of myostatin (myostatin mRNA; D-alanine at 0.001 mM or more (0.001-1 mM tested), 12 hours (FIG. 7)): decreased

CC(C)C[C@@H](N)C(=O)O [D-leucine]
myostatin promoter activity reduced by (myostatin promoter): 54% | expression of myostatin mRNA (myostatin mRNA; D-leucine 0.01, 0.1 and 1 mM, after one day): decreased in a dose-dependent manner

CC(C)CC(N)C(=O)O (racemic) [DL-leucine]
myostatin promoter activity reduced by (myostatin promoter): 41%

O=C(O)[C@H]1CCCN1 [D-proline]
promoter activity of myostatin (myostatin promoter; D-proline at 0.001 mM or more (0.001-1 mM tested), 24 hours (FIG. 8)): decreased | mRNA expression level of myostatin (myostatin mRNA; D-proline at 0.1 mM or more (0.1 and 1 mM tested), 24 hours (FIG. 9)): decreased
